In ChEMBL document CHEMBL6153074, “Discovery of novel dual tubulin and MMPs inhibitors for the treatment of lung cancer and overcoming drug resistance” (Eur J Med Chem, 2025):
The source made the active and inactive calls. The rule behind the calls is not given here.

How the values were obtained:
A549 [1] = assay: Induction of apoptosis in human A549 cells assessed as viable cells at 0.5 uM incubated for 24 hrs by Annexin V-FITC/PI staining based flow cytometry (reference value: 95.82 %); type: functional; conditions: read-out: Activity
[2] = Toxicity in BALB/c mouse xenografted with human A549 cells assessed as effect on spleen at 10 to 20 mg/kg, ip for 3 weeks administered on every 2 days by H and E staining based analysis; type: organism-based; conditions: in vivo, 504 h, dose 10-20 mg/kg
A549 [3] = assay: Induction of cell cycle arrest in human A549 cells assessed as decrease in cyclin B1 by Western blot analysis; type: functional, cell-based
A549 [4] = assay: Anti-angiogenesis effect in human A549 cells assessed as disruption of tube-like network formation at 0.25 to 0.5 uM incubated for 6 hrs by tube formation assay; type: functional, cell-based; conditions: dose 0.25-0.5 µM
A549 [5] = assay: Antitumor activity against human A549 cells xenografted in BALB/c mouse at 10 mg/kg, ip for 3 weeks administered on every 2 days relative to control; type: functional; conditions: A549, 504 h, read-out: TGI
Tubulin (Homo sapiens) [6] = target: T1, Tubulin (Homo sapiens) (UniProt P68371+Q9H4B7+P0DPH7+P68366+Q13509+Q71U36+P04350+Q3ZCM7+P07437+P68363+Q9BQE3+Q6PEY2+Q13885+Q9BVA1+Q9BUF5); assay: Inhibition of tubulin polymerization (unknown origin) incubated for 65 mins by fluorescence based analysis; type: protein-complex assay; conditions: dose 0.625-20 µM
Tubulin (Homo sapiens) [7] = target: T1, Tubulin (Homo sapiens); assay: Disruption of microtubule network in human A549 cells assessed as cell disorganisation at 2.5 to 5 uM incubated for 24 hrs by immunofluorescence based analysis; conditions: dose 2.5-5 µM
A549 [8] = assay: Induction of apoptosis in human A549 cells assessed as viable cells at 0.25 uM incubated for 24 hrs by Annexin V-FITC/PI staining based flow cytometry (reference value: 95.82 %); type: functional; conditions: read-out: Activity
A549 [9] = assay: Induction of mitochondrial fragmentation in human A549 cells assessed as increase in green fluorescence at 0.5 uM incubated for 24 hrs by JC-1 dye based analysis; type: functional, cell-based
A549 [10] = assay: Induction of cell cycle arrest in human A549 cells assessed as decrease in cdc2 by Western blot analysis; type: functional, cell-based
A549 [11] = assay: Induction of apoptosis in human A549 cells assessed as decrease in Bcl-2 level at 0.5 uM incubated for 24 hrs by Western blot analysis; type: functional, cell-based
A549 [12] = assay: Induction of apoptosis in human A549 cells assessed as increase in cleaved caspase-3 level at 0.5 uM incubated for 24 hrs by Western blot analysis; type: functional, cell-based
A549 [13] = assay: Induction of cell cycle arrest in human A549 cells assessed as accumulation at S phase at 0.25 uM incubated for 24 hrs by PI staining based flow cytometry (reference value: 37.95 %); type: functional
A549 [14] = assay: Induction of apoptosis in human A549 cells assessed as late apoptotic cells at 0.25 uM incubated for 24 hrs by Annexin V-FITC/PI staining based flow cytometry (reference value: 1.01 %); type: functional
A549 [15] = assay: Induction of mitochondrial membrane potential loss in human A549 cells at 0.5 uM incubated for 24 hrs by JC-1 dye based analysis (reference value: 3.14 %); type: functional
Stromelysin-1 = Stromelysin-1 (Homo sapiens, UniProt P08254); assay: Inhibition of MMP-3 (unknown origin) using fluorogenic-McaPro-Leu-Gly-Leu-Dpa-Ala-Arg-NH2 as substrate
[16] = Stability of compound in DMEM containing 1 percent DMF at pH 7.4 measured for 24 to 72 hrs; type: physicochemical; conditions: buffer, time 24-72 hrs
A549 [17] = assay: Anti-migration activity in human A549 cells assessed as migration rate at 0.25 uM incubated for 24 hrs by wound healing assay (reference value: 73.94 %); type: functional
A549 [18] = assay: cells; conditions: Homo sapiens
Description: Antiproliferative activity against human A549 cells by CCK8 assay

A549 [19] = assay: Induction of apoptosis in human A549 cells assessed as early apoptotic cells at 0.5 uM incubated for 24 hrs by Annexin V-FITC/PI staining based flow cytometry (reference value: 3.04 %); type: functional
A549 [20] = assay: Induction of cell cycle arrest in human A549 cells assessed as accumulation at G1 phase at 0.25 uM incubated for 24 hrs by PI staining based flow cytometry (reference value: 58.67 %); type: functional
A549 [21] = assay: Induction of intracellular ROS accumulation in human A549 cells at 0.25 uM incubated for 24 hrs by DCFH-DA dye based flow cytometry (reference value: 4.96 %); type: functional
A549 [22] = assay: Induction of intracellular ROS accumulation in human A549 cells assessed as increase in green fluorescence incubated for 24 hrs by DCFH-DA dye based confocal microscopy; type: functional, cell-based
A549 [23] = assay: Induction of apoptosis in human A549 cells assessed as early apoptotic cells at 0.25 uM incubated for 24 hrs by Annexin V-FITC/PI staining based flow cytometry (reference value: 3.04 %); type: functional
[24] = Antiproliferative activity against human L02 cells by CCK8 assay; type: toxicity, cell-based
NCI-H460 = assay: Antiproliferative activity against human NCI-H460 cells by CCK8 assay
A549 [25] = assay: Induction of apoptosis in human A549 cells assessed as increase in Bax level at 0.5 uM incubated for 24 hrs by Western blot analysis; type: functional, cell-based
[26] = Toxicity in BALB/c mouse xenografted with human A549 cells assessed as effect on liver at 10 to 20 mg/kg, ip for 3 weeks administered on every 2 days by H and E staining based analysis; type: organism-based; conditions: in vivo, 504 h, dose 10-20 mg/kg
A549 [27] = assay: Induction of apoptosis in human A549 cells assessed as late apoptotic cells at 0.5 uM incubated for 24 hrs by Annexin V-FITC/PI staining based flow cytometry (reference value: 1.01 %); type: functional
A549 [28] = assay: Induction of cell cycle arrest in human A549 cells assessed as accumulation at G1 phase at 0.5 uM incubated for 24 hrs by PI staining based flow cytometry (reference value: 58.67 %); type: functional
A549 [29] = assay: Induction of cell cycle arrest in human A549 cells assessed as accumulation at G2 phase at 0.5 uM incubated for 24 hrs by PI staining based flow cytometry (reference value: 3.37 %); type: functional
[30] = Toxicity in BALB/c mouse xenografted with human A549 cells assessed as effect on heart at 10 to 20 mg/kg, ip for 3 weeks administered on every 2 days by H and E staining based analysis; type: organism-based; conditions: in vivo, 504 h, dose 10-20 mg/kg
A549 [31] = assay: Downregulation of IKK-beta phosphorylation in TNF-alpha-treated human A549 cells by Western blot analysis; type: functional, cell-based
[32] = Stability of compound assessed as carboxylesterase (unknown origin)-mediated drug hydrolysis incubated for 4 hrs by RP-HPLC analysis; type: ADME; conditions: human
A549 [33] = assay: Induction of mitochondrial membrane potential loss in human A549 cells at 0.25 uM incubated for 24 hrs by JC-1 dye based analysis (reference value: 3.14 %); type: functional
[34] = Antiproliferative activity against human MCF-10A cells by CCK8 assay; type: toxicity, cell-based
A549 [35] = assay: Induction of cell cycle arrest in human A549 cells assessed as accumulation at G2 phase at 0.25 uM incubated for 24 hrs by PI staining based flow cytometry (reference value: 3.37 %); type: functional

Stromelysin-1, sequence (P08254 whole entry): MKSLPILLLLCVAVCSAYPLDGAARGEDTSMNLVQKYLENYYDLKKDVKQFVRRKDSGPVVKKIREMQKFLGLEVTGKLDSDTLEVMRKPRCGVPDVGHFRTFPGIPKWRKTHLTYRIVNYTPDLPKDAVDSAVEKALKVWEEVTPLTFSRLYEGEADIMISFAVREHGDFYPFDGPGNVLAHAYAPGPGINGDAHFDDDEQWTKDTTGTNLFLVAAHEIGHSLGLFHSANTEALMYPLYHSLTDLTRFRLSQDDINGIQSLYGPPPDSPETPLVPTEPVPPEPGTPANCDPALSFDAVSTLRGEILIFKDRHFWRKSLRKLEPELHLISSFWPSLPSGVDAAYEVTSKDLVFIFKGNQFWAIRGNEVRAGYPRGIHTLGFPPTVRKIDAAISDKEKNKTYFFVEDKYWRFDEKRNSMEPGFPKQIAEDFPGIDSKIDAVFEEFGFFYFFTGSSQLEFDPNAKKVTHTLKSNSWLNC

CCOP(=O)(OCC)C(Nc1ccc(CC(=O)Oc2cc(/C=C/C(=O)c3cc(OC)c(OC)c(OC)c3)ccc2OC)cc1)c1cccc([N+](=O)[O-])c1 (configuration not stated)
viability at 0.5 µM (A549 [1]): 57.9%
Activity [2]: Non-toxic
Activity (A549 [3]): Active
Activity (A549 [4]): Active
inhibition in vivo at 10 mg/kg (A549 [5]): 53.3%
inhibition (Tubulin (Homo sapiens) [6]): Dose-dependent-effect
Activity (Tubulin (Homo sapiens) [7]): Active
viability at 0.25 µM (A549 [8]): 79.9%
Activity (A549 [9]): Active
Activity (A549 [10]): Active
Activity (A549 [11]): Active
Activity (A549 [12]): Active
Activity (A549 [13]): 20.12%
Activity (A549 [14]): 3.62%
Activity (A549 [15]): 56.15%
IC50 (Stromelysin-1): 36400 nM
Stability [16]: Stable
Activity (A549 [17]): 62.35%
IC50 (A549 [18]): 154 nM
Activity (A549 [19]): 34.86%
Activity (A549 [20]): 42.09%
Activity (A549 [21]): 36.07%
Activity (A549 [22]): Active
Activity (A549 [23]): 16.18%
IC50 [24]: 2210 nM
IC50 (NCI-H460): 186 nM
Activity (A549 [25]): Active
Activity [26]: Non-toxic
Activity (A549 [27]): 6.34%
Activity (A549 [28]): 15.53%
Activity (A549 [29]): 81.23%
Activity [30]: Non-toxic
Activity (A549 [31]): Active
Stability [32]: Unstable
Activity (A549 [33]): 27.19%
IC50 [34]: 2710 nM
Activity (A549 [35]): 37.79%
